Tests used:
[1] = molecular target: T1, Alpha-1B adrenergic receptor (Rattus norvegicus, UniProt P15823); assay: DRUGMATRIX: Alpha-1B adrenergic receptor radioligand binding (ligand: prazosin); format: cell membranes, Wistar, Liver, Membrane; conditions: Not Active = under 50% inhibition at 10 µM
T1 sequence (P15823 whole entry): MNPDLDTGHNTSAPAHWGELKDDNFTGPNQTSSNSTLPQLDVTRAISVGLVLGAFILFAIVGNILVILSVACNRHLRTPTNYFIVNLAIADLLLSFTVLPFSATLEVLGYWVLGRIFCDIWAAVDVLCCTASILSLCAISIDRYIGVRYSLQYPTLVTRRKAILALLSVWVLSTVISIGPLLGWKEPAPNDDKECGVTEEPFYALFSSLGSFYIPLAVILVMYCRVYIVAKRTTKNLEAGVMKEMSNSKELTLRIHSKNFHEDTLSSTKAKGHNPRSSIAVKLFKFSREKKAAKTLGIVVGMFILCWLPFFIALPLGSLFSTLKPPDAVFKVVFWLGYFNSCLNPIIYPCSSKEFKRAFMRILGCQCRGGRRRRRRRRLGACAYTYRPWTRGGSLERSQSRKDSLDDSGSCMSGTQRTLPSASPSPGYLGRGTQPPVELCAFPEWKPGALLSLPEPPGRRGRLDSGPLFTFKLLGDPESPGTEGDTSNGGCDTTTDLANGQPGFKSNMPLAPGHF

[2] = DRUGMATRIX: beta-Lactamase enzyme inhibition (substrate: Nitrocefin); design: species or system Bacillus cereus; conditions: Not Active = under 50% inhibition at 10 µM
Vasopressin V1a receptor = Vasopressin V1a receptor (Homo sapiens, UniProt P37288); format: cell membranes, Membrane; conditions: hek293; note: in other assays of this panel Not Active means under 50% inhibition at 10 µM
Chain of Vasopressin V1a receptor (P37288 whole entry): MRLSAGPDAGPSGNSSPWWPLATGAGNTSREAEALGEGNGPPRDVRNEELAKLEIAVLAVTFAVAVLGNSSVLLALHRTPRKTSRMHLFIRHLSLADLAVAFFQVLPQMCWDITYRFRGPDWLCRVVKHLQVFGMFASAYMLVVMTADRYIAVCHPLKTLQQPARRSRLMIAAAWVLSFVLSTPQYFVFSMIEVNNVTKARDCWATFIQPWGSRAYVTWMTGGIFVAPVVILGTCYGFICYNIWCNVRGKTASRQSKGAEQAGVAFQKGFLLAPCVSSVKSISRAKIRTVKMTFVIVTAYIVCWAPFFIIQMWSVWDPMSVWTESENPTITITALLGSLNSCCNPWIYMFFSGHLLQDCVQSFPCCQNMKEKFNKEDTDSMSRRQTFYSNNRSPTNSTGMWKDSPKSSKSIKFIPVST

[3] = molecular target: Sodium-dependent dopamine transporter (Homo sapiens, UniProt Q01959); assay: DRUGMATRIX: Dopamine Transporter radioligand binding (ligand: [125I] RTI-55); format: cell membranes, CHO-K1, Membrane; conditions: cho-k1; Not Active = under 50% inhibition at 10 µM
Chain of Sodium-dependent dopamine transporter (Q01959 whole entry): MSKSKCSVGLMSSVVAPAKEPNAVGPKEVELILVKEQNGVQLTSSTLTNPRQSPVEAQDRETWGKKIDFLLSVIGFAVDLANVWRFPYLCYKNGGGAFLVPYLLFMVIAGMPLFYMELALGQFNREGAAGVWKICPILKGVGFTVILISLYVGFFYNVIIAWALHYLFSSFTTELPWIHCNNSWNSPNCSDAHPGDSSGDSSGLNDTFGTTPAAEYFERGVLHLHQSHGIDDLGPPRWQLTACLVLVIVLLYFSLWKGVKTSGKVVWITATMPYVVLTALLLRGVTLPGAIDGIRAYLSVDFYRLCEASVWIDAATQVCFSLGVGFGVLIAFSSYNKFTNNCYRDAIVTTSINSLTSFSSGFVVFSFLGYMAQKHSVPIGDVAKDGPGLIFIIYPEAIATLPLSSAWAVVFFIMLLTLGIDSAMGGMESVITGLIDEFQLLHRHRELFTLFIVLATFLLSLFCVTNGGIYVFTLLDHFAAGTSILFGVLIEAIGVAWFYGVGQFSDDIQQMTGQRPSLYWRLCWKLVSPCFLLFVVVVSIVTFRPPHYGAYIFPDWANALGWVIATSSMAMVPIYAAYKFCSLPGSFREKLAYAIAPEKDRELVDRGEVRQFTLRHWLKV

[4] = molecular target: T2, Amine oxidase [flavin-containing] A (Homo sapiens, UniProt P21397); assay: DRUGMATRIX: Monoamine Oxidase MAO-A enzyme inhibition (substrate: Kynuramine); design: species or system BTI-TN-5B1-4; conditions: bti-tn-5b1-4; Not Active = under 50% inhibition at 10 µM
T2 sequence (P21397 whole entry): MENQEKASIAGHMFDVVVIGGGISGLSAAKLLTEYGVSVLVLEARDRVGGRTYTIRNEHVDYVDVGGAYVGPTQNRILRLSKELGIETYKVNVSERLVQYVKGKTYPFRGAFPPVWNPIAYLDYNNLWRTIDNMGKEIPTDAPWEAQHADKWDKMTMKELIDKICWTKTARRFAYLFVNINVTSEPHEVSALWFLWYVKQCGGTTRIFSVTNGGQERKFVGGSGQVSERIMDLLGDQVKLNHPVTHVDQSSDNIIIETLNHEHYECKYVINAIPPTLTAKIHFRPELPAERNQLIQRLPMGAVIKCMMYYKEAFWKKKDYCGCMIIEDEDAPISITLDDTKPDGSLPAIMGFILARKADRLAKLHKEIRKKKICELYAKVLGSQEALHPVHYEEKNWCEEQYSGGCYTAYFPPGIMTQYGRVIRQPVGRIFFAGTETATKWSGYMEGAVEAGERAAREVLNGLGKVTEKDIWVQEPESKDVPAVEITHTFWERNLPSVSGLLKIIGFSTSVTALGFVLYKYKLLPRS

[5] = molecular target: T3, Neuropeptide Y receptor type 1 (Homo sapiens, UniProt P25929); format: cell membranes, Membrane; conditions: sk-n-mc; note: in other assays of this panel Not Active means under 50% inhibition at 10 µM
T3 sequence (P25929 whole entry): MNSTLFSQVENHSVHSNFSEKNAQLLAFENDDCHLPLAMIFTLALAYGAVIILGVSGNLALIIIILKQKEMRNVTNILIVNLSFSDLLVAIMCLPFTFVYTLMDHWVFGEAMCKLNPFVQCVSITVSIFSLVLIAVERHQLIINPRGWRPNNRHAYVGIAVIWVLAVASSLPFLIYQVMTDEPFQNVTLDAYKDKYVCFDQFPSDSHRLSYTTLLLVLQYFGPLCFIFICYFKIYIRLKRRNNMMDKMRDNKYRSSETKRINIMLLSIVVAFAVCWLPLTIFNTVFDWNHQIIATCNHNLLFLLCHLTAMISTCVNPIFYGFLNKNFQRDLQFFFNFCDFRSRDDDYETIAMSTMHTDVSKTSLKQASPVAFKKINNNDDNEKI

[6] = DRUGMATRIX: Phorbol Ester radioligand binding (ligand: [3H] PDBu); format: cell membranes, Mus musculus, ICR, Brain, Membrane; conditions: Not Active = under 50% inhibition at 10 µM
Adenosine receptor A1 = molecular target: T4, Adenosine receptor A1 (Homo sapiens, UniProt P30542); format: cell membranes, Membrane; conditions: cho;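 note: radioligand binding assay at the adenosine A1 receptor, with DPCPX serving as the labelled ligand; in other assays of this panel Not Active means under 50% inhibition at 10 µM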
T4 sequence (P30542 whole entry): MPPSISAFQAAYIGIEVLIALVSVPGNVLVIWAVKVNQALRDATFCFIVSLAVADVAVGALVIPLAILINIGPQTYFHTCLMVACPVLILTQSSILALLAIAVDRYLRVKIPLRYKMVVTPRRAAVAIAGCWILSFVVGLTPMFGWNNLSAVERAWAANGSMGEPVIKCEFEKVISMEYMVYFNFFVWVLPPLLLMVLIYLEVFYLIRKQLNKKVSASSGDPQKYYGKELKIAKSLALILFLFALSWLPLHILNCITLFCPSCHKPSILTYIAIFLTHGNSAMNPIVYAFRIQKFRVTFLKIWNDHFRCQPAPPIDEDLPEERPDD

COc1ccccc1C(=O)N1CCC(Cc2ccccc2)CC1
Not Active: IC50 [1] | IC50 [2] | Ki [2] | IC50 (Vasopressin V1a receptor) | IC50 [3] | IC50 [4] | IC50 [5] | IC50 [6] | Ki [6] | IC50 (Adenosine receptor A1)

CCC1=C[C@@H]2CN(C1)Cc1c([nH]c3ccccc13)[C@@](C(=O)OC)(c1cc3c(cc1OC)N(C)[C@H]1[C@@](O)(C(=O)OC)[C@H](OC(C)=O)[C@]4(CC)C=CCN5CC[C@]31[C@@H]54)C2 [VINORELBINE]
Not Active: IC50 [1] | IC50 [2] | Ki [2] | IC50 (Vasopressin V1a receptor) | IC50 [3] | IC50 [4] | IC50 [5] | IC50 [6] | Ki [6] | IC50 (Adenosine receptor A1)

CCOC(=O)[C@H](CCc1ccccc1)N[C@H]1CCc2ccccc2N(CC(=O)O)C1=O [BENAZEPRIL]
Not Active: IC50 [1] | IC50 [2] | Ki [2] | IC50 (Vasopressin V1a receptor) | IC50 [3] | IC50 [4] | IC50 [5] | IC50 [6] | Ki [6] | IC50 (Adenosine receptor A1)

CCOC(=O)C(C)(C)Oc1ccc(Cl)cc1 [CLOFIBRATE]
Not Active: IC50 [1] | IC50 [2] | Ki [2] | IC50 (Vasopressin V1a receptor) | IC50 [3] | IC50 [4] | IC50 [5] | IC50 [6] | Ki [6] | IC50 (Adenosine receptor A1)

CC(=O)Nc1c(I)c(NC(C)=O)c(I)c(C(=O)O)c1I [DIATRIZOIC ACID]
Not Active: IC50 [1] | IC50 [2] | Ki [2] | IC50 (Vasopressin V1a receptor) | IC50 [3] | IC50 [4] | IC50 [5] | IC50 [6] | Ki [6] | IC50 (Adenosine receptor A1)

CCOC(=O)C1=C(C)NC(C)=C(C(=O)OC)C1c1cccc([N+](=O)[O-])c1 (stereo not given) [NITRENDIPINE]
Not Active: IC50 [1] | IC50 [2] | Ki [2] | IC50 (Vasopressin V1a receptor) | IC50 [3] | IC50 [4] | IC50 [5] | IC50 [6] | Ki [6] | IC50 (Adenosine receptor A1)

O=C1CC[C@H](N2C(=O)c3ccccc3C2=O)C(=O)N1
Not Active: IC50 [1] | IC50 [2] | Ki [2] | IC50 (Vasopressin V1a receptor) | IC50 [3] | IC50 [4] | IC50 [5] | IC50 [6] | Ki [6] | IC50 (Adenosine receptor A1)

C/C=C/C[C@@H](C)[C@@H](O)[C@H]1C(=O)N[C@@H](CC)C(=O)N(C)CC(=O)N(C)[C@@H](CC(C)C)C(=O)N[C@@H](C(C)C)C(=O)N(C)[C@@H](CC(C)C)C(=O)N[C@@H](C)C(=O)N[C@H](C)C(=O)N(C)[C@@H](CC(C)C)C(=O)N(C)[C@@H](CC(C)C)C(=O)N(C)[C@@H](C(C)C)C(=O)N1C [CYCLOSPORINE]
Not Active: IC50 [1] | IC50 [2] | Ki [2] | IC50 (Vasopressin V1a receptor) | IC50 [3] | IC50 [4] | IC50 [5] | IC50 [6] | Ki [6] | IC50 (Adenosine receptor A1)

CC(C)Cc1ccc(C(C)C(=O)O)cc1 (stereo not given) [IBUPROFEN]
Not Active: IC50 [1] | IC50 [2] | Ki [2] | IC50 (Vasopressin V1a receptor) | IC50 [3] | IC50 [4] | IC50 [5] | IC50 [6] | Ki [6] | IC50 (Adenosine receptor A1)

CCCCN1CCCCC1C(=O)Nc1c(C)cccc1C.Cl (stereo not given) [BUPIVACAINE HYDROCHLORIDE]
Not Active: IC50 [1] | IC50 [2] | Ki [2] | IC50 (Vasopressin V1a receptor) | IC50 [3] | IC50 [4] | IC50 [5] | IC50 [6] | Ki [6] | IC50 (Adenosine receptor A1)
